Reference: patent publication US20230193197A1, “TUNABLE PLANT-BASED MATERIALS VIA IN VITRO CELL CULTURE USING A ZINNIA ELEGANS MODEL” (FORAY Bioscience, Inc., priority 2021, published 2023)

System: Z. elegans cells
Assay: Full factorial hormone concentration experiment in liquid culture (live fraction, lignification, enlargement, elongation metrics)
Format: cell-based, Zinnia elegans
Details: for cumulative levels of lignification / live fraction at day 12: NAA at 0.5 mg ml^-1 together with BAP at 1 mg ml^-1, compared across 16 hormone combinations
Experimental: In an embodiment, Z. elegans cells may be isolated by the maceration of young Zinnia leaves (e.g., leaves 114). Leaves collected from approximately 14 day-old Zinnia plants may be rinsed under running tap water for 5 min. Leaves may be sterilized in a solution of 5 ml commercial bleach (Clorox), 95 ml of deionized water, and […] of Tween 20 (Sigma Aldrich) for 5 min. Subsequently, leaves may be rinsed thoroughly with sterile distilled water, sliced into strips, and ground between the surfaces of a small sieve and a spoon (e.g., a stainless steel spoon). The leaf matter may be intermittently rinsed with ZE-M media and the rinsate may be collected in a bowl positioned beneath the supporting sieve. After completion of grinding, the rinsate may be collected and filtered through a […] cell strainer (e.g., manufactured by Fisher Scientific) to remove large debris. This strainer is just but an example and should not be considered limiting. The filtered solution may be centrifuged at 100 g for 8 min and resulting supernatant removed if more concentrated cell solutions are desired. Liquid cultures may be maintained at concentrations between 250,000 and 500,000 cells ml^−1 at 3 ml per well in a 6-well plate wrapped in parafilm. Cultures may be maintained at 22° C. in the dark on an orbital shaker operating at 80 rpm.
Cells may be cultured in this manner for 48 hours in the low-hormone media before transference to specialized experimental media. An incubation period may improve differentiation rates when cells may be later exposed to elevated levels of auxin and cytokinin. Auxins may be plant hormones produced in the stem tip that promote cell elongation. Cytokinins may be a class of plant hormones that promote cell division, or cytokinesis. For dispersed gel cultures, cells may be extracted and maintained in low-hormone, liquid medium for a 48 hour acclimation period, as previously described, prior to transference to a gel medium 108 solidified by the addition of Gelzan C M (e.g., manufactured by Sigma Aldrich) at a final concentration of 3 g L^−1. Cultures may be sealed off with parafilm and maintained at 22° C. in the dark.
For liquid cultures, well-mixed […] aliquots of cell suspension may be transferred to 48 well plates for imaging. A […] volume of a fluorescein diacetate (FDA) stock solution (prepared at 2 mg ml^−1 acetone) may be added to the cell suspension and incubated in the dark for 20 min. After the incubation period, […] of calcofluor white (CW) may be added and the solution rested for an additional 5 min prior to imaging. A Zeiss LSM780 confocal microscope, for example, may be set to excitation/emission wavelengths of […]/440 nm (DAPI filter) for CW and 490 nm/526 nm for FDA for imaging. Gel cultures may be stained through a similar dual-step process after wetting the gel surface with a small amount of liquid medium. Relative staining volumes may be the same, but increased incubation times may be involved (e.g., incubation times were approximately 45 min for FDA incubation, 45 min for CW incubation). Image analysis may be performed using Image-i. The thresholding tool may be used to select the relevant cell areas. To ensure robustness of the analyzed data ranges, the images corresponding to the highest and lowest values for a single sample may be analyzed a total of 3 times, with the repeated results averaged to yield a final value for the given image. […]

Structure (SMILES) | elongation metric (BAP elevated, across most NAA concentrations) | cumulative levels of lignification | live fraction at day 12
c1ccc(CNc2ncnc3nc[nH]c23)cc1 [BAP, 6-benzylaminopurine] | reduced | highest | lowest
O=C(O)Cc1cccc2ccccc12 [NAA, a-naphthaleneacetic acid] |  | highest | lowest
